According to US8415469B2, “Compounds and methods for kinase modulation, and indications therefor” (Plexxikon Inc., priority 2005, dated 2013):

How the values were obtained:
Assay type in all cases: biochemical
B-Raf = target: T1, B-Raf (Homo sapiens, UniProt P15056); assay: AlphaScreen kinase assay, B-Raf; details: read-out: IC50, activity toward kinase B-Raf
T1 construct: purchased Upstate Biotechnology

Jnk2 = target: T2, Jnk2 (Homo sapiens, UniProt P45984); assay: AlphaScreen kinase assay, Jnk2; details: read-out: IC50, activity toward kinase Jnk2
T2 construct: purchased Roche Protein Expression Group (Indianapolis, IN)
T2 sequence (P45984 whole entry): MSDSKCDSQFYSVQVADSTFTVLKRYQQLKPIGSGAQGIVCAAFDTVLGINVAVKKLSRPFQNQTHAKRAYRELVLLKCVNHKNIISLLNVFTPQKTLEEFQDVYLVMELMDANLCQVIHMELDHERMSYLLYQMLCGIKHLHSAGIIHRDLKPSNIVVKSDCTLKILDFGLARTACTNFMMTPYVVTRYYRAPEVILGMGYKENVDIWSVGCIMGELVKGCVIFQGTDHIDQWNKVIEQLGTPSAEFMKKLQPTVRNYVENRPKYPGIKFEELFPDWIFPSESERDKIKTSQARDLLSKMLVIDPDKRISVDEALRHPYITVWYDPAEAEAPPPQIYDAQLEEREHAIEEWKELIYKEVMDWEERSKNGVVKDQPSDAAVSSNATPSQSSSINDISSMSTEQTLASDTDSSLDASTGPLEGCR
Description: AlphaScreen assay was used to screen additional kinases. The assay is similarly dependent on the phosphorylation of a peptide substrate. In this assay, an antibody that recognizes phosphorylated substrate is bound to an acceptor bead. The peptide substrate is attached to biotin, which binds to a donor head that contains streptavidin. Thus phosphorylated substrate is bound by antibody and streptavidin, bringing the donor and acceptor heads into close proximity when kinase is not inhibited. The donor produces singlet oxygen which results in emission from the acceptor when they are in close proximity. Conversely, when kinase is inhibited, the donor and acceptor beads are not associated and the emission from the acceptor is reduced.
AlphaScreen assays were done using compounds dissolved in DMSO to a concentration of 20 mM. The compounds were diluted accordingly to the desired final concentrations in each sample well, using 1:3 serial dilution for a total of 8 concentration points.

Jnk1 = target: T3, Jnk1 (Homo sapiens, UniProt P45983); assay: AlphaScreen kinase assay, Jnk1; details: read-out: IC50, activity toward kinase Jnk1
T3 construct: purchased Upstate Biotechnology
T3 sequence (P45983 whole entry): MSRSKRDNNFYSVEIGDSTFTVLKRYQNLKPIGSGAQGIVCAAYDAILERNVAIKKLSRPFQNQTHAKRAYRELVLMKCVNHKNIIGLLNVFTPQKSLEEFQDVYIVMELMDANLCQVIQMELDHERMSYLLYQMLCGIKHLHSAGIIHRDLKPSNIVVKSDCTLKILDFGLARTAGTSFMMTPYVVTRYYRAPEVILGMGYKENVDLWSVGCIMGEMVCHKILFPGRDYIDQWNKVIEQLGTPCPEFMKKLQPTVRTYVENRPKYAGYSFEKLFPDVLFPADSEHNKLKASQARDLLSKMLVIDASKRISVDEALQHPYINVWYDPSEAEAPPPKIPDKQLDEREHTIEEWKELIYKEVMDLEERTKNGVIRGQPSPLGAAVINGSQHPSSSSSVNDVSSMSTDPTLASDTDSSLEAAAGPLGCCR

B-Raf V600E = target: T4, B-Raf V600E (Homo sapiens, UniProt P15056, V600E); assay: AlphaScreen kinase assay, B-Raf V600E; details: read-out: IC50, activity toward kinase B-Raf V600E
T4 construct: P4254. pFastBacBD-CDC37 BRAF D437-K722-X, V600E; His6 with pFastBac HT leader (TEV site) (N); made in house; host or cells: Sf9 (baculovirus; chaperone CDC37 co-expressed)
T4 sequence (P15056 with tags, fused parts or gaps V600E): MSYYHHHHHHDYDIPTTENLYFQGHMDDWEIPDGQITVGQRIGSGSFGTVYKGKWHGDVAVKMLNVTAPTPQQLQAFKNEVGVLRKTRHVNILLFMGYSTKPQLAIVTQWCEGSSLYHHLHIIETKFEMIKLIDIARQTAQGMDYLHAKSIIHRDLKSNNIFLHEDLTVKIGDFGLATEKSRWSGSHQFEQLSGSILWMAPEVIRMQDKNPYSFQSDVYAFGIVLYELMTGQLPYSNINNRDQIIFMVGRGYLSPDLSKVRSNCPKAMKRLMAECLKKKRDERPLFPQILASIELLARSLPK
Description: (§1) AlphaScreen assays were done using compounds dissolved in DMSO to a concentration of 20 mM. The compounds were diluted accordingly to the desired final concentrations in each sample well, using 1:3 serial dilution for a total of 8 concentration points. Plates were prepared such that each kinase reaction is 20 μl in 1× kinase buffer, 5% DMSO and 10 μM ATP. After incubation of the kinase reaction for 1 hour at room temperature, 5 μl of donor beads in stop buffer (50 mM EDTA in 1× kinase buffer) was added, the sample was mixed and incubated for 20 minutes at room temperature before adding 5 μl of acceptor beads in stop buffer. The samples were incubated for 60 minutes at room temperature and the signal per well was read on AlphaQuest reader.

Fms = target: T5, Fms (Homo sapiens, UniProt P07333); assay: AlphaScreen kinase assay, Fms; details: read-out: IC50, activity toward kinase Fms
T5 construct: purchased Upstate Biotechnology
T5 sequence (P07333 20-972): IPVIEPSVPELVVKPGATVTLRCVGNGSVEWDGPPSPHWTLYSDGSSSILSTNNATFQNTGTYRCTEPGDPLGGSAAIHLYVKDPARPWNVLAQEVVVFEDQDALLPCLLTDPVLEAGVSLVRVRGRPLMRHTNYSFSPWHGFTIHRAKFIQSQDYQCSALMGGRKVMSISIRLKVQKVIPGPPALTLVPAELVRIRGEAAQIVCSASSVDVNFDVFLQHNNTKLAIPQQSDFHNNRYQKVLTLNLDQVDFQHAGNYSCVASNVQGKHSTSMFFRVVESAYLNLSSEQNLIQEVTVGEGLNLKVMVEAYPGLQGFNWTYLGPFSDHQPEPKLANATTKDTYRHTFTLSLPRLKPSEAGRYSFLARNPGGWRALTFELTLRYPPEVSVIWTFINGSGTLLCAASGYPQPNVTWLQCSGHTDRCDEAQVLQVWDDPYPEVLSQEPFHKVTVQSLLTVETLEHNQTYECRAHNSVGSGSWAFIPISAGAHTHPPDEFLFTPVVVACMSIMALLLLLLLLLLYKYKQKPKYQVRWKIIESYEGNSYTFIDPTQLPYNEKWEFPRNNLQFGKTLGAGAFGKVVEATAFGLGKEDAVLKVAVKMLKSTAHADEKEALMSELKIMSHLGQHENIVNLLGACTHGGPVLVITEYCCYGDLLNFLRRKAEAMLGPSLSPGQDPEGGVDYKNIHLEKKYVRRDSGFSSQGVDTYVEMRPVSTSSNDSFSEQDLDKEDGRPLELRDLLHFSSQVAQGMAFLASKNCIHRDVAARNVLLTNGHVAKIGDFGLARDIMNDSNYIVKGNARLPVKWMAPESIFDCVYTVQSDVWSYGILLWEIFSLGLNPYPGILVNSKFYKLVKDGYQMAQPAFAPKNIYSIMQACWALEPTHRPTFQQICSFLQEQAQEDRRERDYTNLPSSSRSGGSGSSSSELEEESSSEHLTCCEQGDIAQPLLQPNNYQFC

Jnk3 = target: T6, Jnk3 (Homo sapiens, UniProt P53779); assay: AlphaScreen kinase assay, Jnk3; details: read-out: IC50, activity toward kinase Jnk3
T6 construct: purchased Upstate Biotechnology
T6 sequence (P53779 whole entry): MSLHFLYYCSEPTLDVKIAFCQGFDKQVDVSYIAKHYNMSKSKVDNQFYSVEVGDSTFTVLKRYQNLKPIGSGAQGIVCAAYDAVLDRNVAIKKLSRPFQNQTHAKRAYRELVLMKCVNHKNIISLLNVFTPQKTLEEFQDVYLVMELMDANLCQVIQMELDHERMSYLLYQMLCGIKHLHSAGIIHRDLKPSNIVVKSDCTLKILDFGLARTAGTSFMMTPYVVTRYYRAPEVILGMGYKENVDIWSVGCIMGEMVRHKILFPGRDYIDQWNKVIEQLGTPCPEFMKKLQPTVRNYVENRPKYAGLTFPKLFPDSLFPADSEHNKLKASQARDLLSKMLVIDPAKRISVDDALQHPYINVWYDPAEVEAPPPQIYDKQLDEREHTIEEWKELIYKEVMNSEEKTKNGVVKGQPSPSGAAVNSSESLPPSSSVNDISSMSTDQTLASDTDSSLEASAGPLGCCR

Kit = target: T7, Kit (Homo sapiens, UniProt P10721); assay: AlphaScreen kinase assay, Kit; details: read-out: IC50, activity toward kinase Kit
T7 construct: P1332.N6 BI PTP KIT M552-K948-X COD; His6 (N); made in house; host or cells: E. coli (PTP1B co-expressed)
T7 sequence (P10721 with tags, fused parts or gaps): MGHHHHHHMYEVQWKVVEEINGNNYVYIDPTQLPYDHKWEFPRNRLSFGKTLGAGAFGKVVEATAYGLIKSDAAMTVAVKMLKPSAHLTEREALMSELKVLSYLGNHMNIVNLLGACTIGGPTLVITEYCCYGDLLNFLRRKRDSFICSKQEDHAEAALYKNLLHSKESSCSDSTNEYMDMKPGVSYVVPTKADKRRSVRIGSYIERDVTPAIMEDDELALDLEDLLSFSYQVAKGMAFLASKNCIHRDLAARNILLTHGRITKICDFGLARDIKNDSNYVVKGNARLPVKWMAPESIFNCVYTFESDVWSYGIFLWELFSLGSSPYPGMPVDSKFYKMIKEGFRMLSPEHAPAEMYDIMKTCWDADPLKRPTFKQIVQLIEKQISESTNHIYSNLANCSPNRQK
Description: as §1

Measured: IC50

T1 sequence (P15056 whole entry): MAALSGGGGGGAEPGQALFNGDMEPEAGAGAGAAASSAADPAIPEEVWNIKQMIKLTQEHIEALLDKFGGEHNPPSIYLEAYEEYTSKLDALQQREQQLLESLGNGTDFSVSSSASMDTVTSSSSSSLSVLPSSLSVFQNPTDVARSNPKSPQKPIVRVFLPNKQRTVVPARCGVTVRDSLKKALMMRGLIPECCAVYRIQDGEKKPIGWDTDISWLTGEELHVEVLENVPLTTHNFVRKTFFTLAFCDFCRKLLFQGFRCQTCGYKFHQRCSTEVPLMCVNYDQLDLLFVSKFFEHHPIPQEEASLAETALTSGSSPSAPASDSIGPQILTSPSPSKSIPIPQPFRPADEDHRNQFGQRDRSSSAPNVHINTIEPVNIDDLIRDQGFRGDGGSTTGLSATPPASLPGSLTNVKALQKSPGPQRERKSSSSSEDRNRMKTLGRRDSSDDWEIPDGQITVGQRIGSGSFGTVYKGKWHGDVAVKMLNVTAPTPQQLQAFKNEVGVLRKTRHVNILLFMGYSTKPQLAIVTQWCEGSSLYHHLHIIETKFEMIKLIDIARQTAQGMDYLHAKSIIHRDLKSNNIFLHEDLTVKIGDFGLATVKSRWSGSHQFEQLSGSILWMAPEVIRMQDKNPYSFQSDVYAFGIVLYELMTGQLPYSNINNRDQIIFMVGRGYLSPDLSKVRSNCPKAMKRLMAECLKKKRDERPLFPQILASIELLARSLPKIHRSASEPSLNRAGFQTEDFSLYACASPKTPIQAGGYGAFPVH

CCCN(CCC)C(=O)n1ccc2c(C(=O)c3c[nH]c4ncc(-c5cccnc5)cc34)cccc21 [Compound P-1722, 4-(5-Pyridin-3-yl-1H-pyrrolo[2,3-b]pyridine-3-carbonyl)-indole-1-carboxylic acid dipropylamide]
not listed: Kit
≤ 10 µM: all other assays above

O=C(Nc1ccncc1)Nc1cccc(C(=O)c2c[nH]c3ncc(-c4cccnc4)cc23)c1 [Compound P-1777, 1-Pyridin-4-yl-3-[3-(5-pyridin-3-yl-1H-pyrrolo[2,3-b]pyridine-3-carbonyl)-phenyl]-urea]
not listed: Fms | Kit
≤ 10 µM: all other assays above

Cc1ccc(NC(=O)Nc2cccc(C(=O)c3c[nH]c4ncc(-c5cccnc5)cc34)c2)cc1 [Compound P-1756, 1-[3-(5-Pyridin-3-yl-1H-pyrrolo[2,3-b]pyridine-3-carbonyl)-phenyl]-3-p-tolyl-urea]
not listed: Kit
≤ 10 µM: all other assays above

COc1cccc(NC(=O)Nc2cccc(C(=O)c3c[nH]c4ncc(-c5cccnc5)cc34)c2)c1 [Compound P-1749, 1-(3-Methoxy-phenyl)-3-[3-(5-pyridin-3-yl-1H-pyrrolo[2,3-b]pyridine-3-carbonyl)-phenyl]-urea]
not listed: Kit
≤ 10 µM: all other assays above

CCCCNC(=O)n1ccc2c(C(=O)c3c[nH]c4ncc(-c5ccc(OC)nc5)cc34)cccc21 [Compound P-1827, 4-[5-(6-Methoxy-pyridin-3-yl)-1H-pyrrolo[2,3-b]pyridine-3-carbonyl]-indole-1-carboxylic acid butylamide]
not listed: B-Raf V600E | Kit
≤ 10 µM: all other assays above

CCCCNC(=O)Nc1cccc(C(=O)c2c[nH]c3ncc(-c4cccnc4)cc23)c1C [Compound P-1742, 1-Butyl-3-[2-methyl-3-(5-pyridin-3-yl-1H-pyrrolo[2,3-b]pyridine-3-carbonyl)-phenyl]-urea]
not listed: Kit
≤ 10 µM: all other assays above

CCCCCNC(=O)n1ccc2c(C(=O)c3c[nH]c4ncc(-c5cccnc5)cc34)cccc21 [Compound P-1702, 4-(5-Pyridin-3-yl-1H-pyrrolo[2,3-b]pyridine-3-carbonyl)-indole-1-carboxylic acid pentylamide]
not listed: Kit
≤ 10 µM: all other assays above

Cc1cc(NC(=O)Nc2cccc(C(=O)c3c[nH]c4ncccc34)c2)on1 [Compound P-1765, 1-(3-Methyl-isoxazol-5-yl)-3-[3-(1H-pyrrolo[2,3-b]pyridine-3-carbonyl)-phenyl]-urea]
not listed: Kit
≤ 10 µM: all other assays above

O=C(Nc1cccc(C(=O)c2c[nH]c3ncccc23)c1)Nc1ccon1 [Compound P-1764, 1-Isoxazol-3-yl-3-[3-(1H-pyrrolo[2,3-b]pyridine-3-carbonyl)-phenyl]-urea]
not listed: Kit
≤ 10 µM: all other assays above

CCCS(=O)(=O)Nc1ccc(F)c(C(=O)c2c[nH]c3ncc(-c4ccc(C(=O)N(C)C)c(C)c4)cc23)c1F [Compound P-2007]
not listed: Kit
≤ 10 µM: all other assays above

O=C(Nc1ccc(Cl)cc1)Nc1cccc(C(=O)c2c[nH]c3ncc(-c4cccnc4)cc23)c1 [Compound P-1750, 1-(4-Chloro-phenyl)-3-[3-(5-pyridin-3-yl-1H-pyrrolo[2,3-b]pyridine-3-carbonyl)-phenyl]-urea]
not listed: Kit
≤ 10 µM: all other assays above

CCCCNC(=O)n1ccc2c(C(=O)c3c[nH]c4ncc(Br)cc34)cccc21 [Compound P-1687, 4-(5-Bromo-1H-pyrrolo[2,3-b]pyridine-3-carbonyl)-indole-1-carboxylic acid butylamide]
not listed: Kit
≤ 10 µM: all other assays above

Cc1ccccc1NC(=O)Nc1cccc(C(=O)c2c[nH]c3ncccc23)c1 [Compound P-1720, 1-[3-(1H-Pyrrolo[2,3-b]pyridine-3-carbonyl)-phenyl]-3-o-tolyl-urea]
≤ 10 µM: all assays above

CCCCNC(=O)Nc1cccc(C(=O)c2c[nH]c3ncc(-c4cccnc4)cc23)c1Cl [Compound P-1828, 1-Butyl-3-[2-chloro-3-(5-pyridin-3-yl-1H-pyrrolo[2,3-b]pyridine-3-carbonyl)-phenyl]-urea]
not listed: Kit
≤ 10 µM: all other assays above

O=C(Nc1cccc(C(=O)c2c[nH]c3ncc(-c4cccnc4)cc23)c1)Nc1ccc(F)c(F)c1 [Compound P-1724, 1-(3,4-Difluoro-phenyl)-3-[3-(5-pyridin-3-yl-1H-pyrrolo[2,3-b]pyridine-3-carbonyl)-phenyl]-urea]
not listed: Kit
≤ 10 µM: all other assays above

O=C(Nc1ccc(F)cc1)Nc1cccc(C(=O)c2c[nH]c3ncc(-c4cccnc4)cc23)c1 [Compound P-1748, 1-(4-Fluoro-phenyl)-3-[3-(5-pyridin-3-yl-1H-pyrrolo[2,3-b]pyridine-3-carbonyl)-phenyl]-urea]
not listed: Kit
≤ 10 µM: all other assays above

Cc1ccccc1NC(=O)Nc1cccc(C(=O)c2c[nH]c3ncc(-c4cccnc4)cc23)c1 [Compound P-1759, 1-[3-(5-Pyridin-3-yl-1H-pyrrolo[2,3-b]pyridine-3-carbonyl)-phenyl]-3-o-tolyl-urea]
not listed: Kit
≤ 10 µM: all other assays above

Cc1cccc(NC(=O)Nc2cccc(C(=O)c3c[nH]c4ncc(-c5cccnc5)cc34)c2)c1 [Compound P-1757, 1-[3-(5-Pyridin-3-yl-1H-pyrrolo[2,3-b]pyridine-3-carbonyl)-phenyl]-3-m-tolyl-urea]
not listed: Kit
≤ 10 µM: all other assays above

Cc1noc(NC(=O)Nc2cccc(C(=O)c3c[nH]c4ncc(Cl)cc34)c2)c1C [Compound P-1776, 1-[3-(5-Chloro-1H-pyrrolo[2,3-b]pyridine-3-carbonyl)-phenyl]-3-(3,4-dimethyl-isoxazol-5-yl)-urea]
≤ 10 µM: all assays above
